Measurements as given in paper PMC9114338 (Scientific Reports, 2022).
Like-named read-outs stand apart in the source and are kept apart here.

Assay: Intravenous TAF pharmacokinetic mouse study (plasma, PBMC, tissue homogenate)
Assay type: in vivo, C57BL/6 J mice
Settings: female, C57BL/6 J, mouse, iv, 0.5 mg
Procedure: C57BL/6 J Mice (9 groups of 4 animals each; 36 mice total) were administered the study product (0.5 mg dose, 0.1 mL) by intravenous (IV) injection. Animals (N = 4) were sacrificed at the following timepoints: Day 1 (1, 3, 6, 12, 24 h), Day 2, 4, 8, and 14. Blood was collected by exsanguination along with select tissue specimens (vide infra).
The isolation of plasma and PBMCs from blood samples was carried out in a laminar flow hood using aseptic techniques, and the entire process was completed in under 45 min to minimize analyte metabolism. Blood was transferred into collection tubes containing sodium citrate (final concentration, 0.4% w/v), diluted using one volume equivalent of 1 × PBS solution, and mixed by inversion. The minimum final volume was 4.0 mL. Prior to the addition of blood samples, Ficoll-Paque media (MilliporeSigma, Burlington, MA, 3.2 mL) was transferred into a 12 mL LeucoSep tube (Greiner, Monroe, NC) and centrifuged at 1000 g for 20 s at room temperature, causing the media to settle just below the porous barrier. The homogenous, diluted blood-PBS mixture was transferred into the prepared LeucoSep tube and centrifuged at 1000 g for 10 min at room temperature, resulting in the formation of three layers above the porous barrier: (A) top layer, consisting of the plasma fraction; (B) middle, interface layer, containing the PBMCs; and (C) thin lower layer, just above the barrier, consisting of Ficoll-Paque media. Layer A (plasma) was transferred to empty 1.5 mL microfuge tubes in 0.5 mL aliquots, and flash-frozen in liquid nitrogen. Layer B (PBMCs) was transferred into an empty 15 mL centrifuge tube and PBS added to the 12 mL mark, followed by gentle inversion mixing. The suspension was centrifuged at 400 g for 15 min, the supernatant removed, and the pellet resuspended in PBS (10 mL) by gentle pipetting. An aliquot (10 µL) was removed from the suspension for cell counting and the remaining sample was centrifuged at 400 g for 15 min. The supernatant was removed without disturbing the cell pellet, which was treated with ice-cold 70% v/v methanol in molecular-grade water (1.0 mL). The mixture was mixed lightly by vortex agitation to lyse the cells, followed by transfer to a 2.0 mL cryovial that was flash-frozen in liquid nitrogen.
Vaginal, rectal, spleen, and thymus tissue samples were collected from sacrificed animals at Day 1 (12, 24 h), Day 4, and 8; rectal tissue samples were not collected at 12 h. The samples were transferred into pre-weighed sample tubes, weighed, and flash-frozen in liquid nitrogen.
PBMC results were normalized to the number of cells and reported as fmol/10^6 cells or as intracellular concentration based on cell volume, in nM. Tissue results were normalized to sample mass and reported as ng mg^-1 or fmol mg^-1.

half-life (rectal tissue, read-out: Terminal half-life in rectal tissue (NCA) (converted)): 43 h | half-life (spleen, read-out: Terminal half-life in spleen (NCA) (converted)): 30.5 h | half-life (thymus, read-out: Terminal half-life in thymus (NCA) (converted)): 20.1 h | half-life (vaginal tissue, read-out: Terminal half-life in vaginal tissue (NCA) (converted)): 39.1 h
Compound: C[C@H](Cn1cnc2c(N)ncnc21)OCP(=O)(O)O [TFV, tenofovir]
